Columns and labels:
[1] = system: dyslipidaemic mice, and rats with heart failure; assay: Cardiac frequency after 3 months' treatment in the animal models; type: in vivo, mouse, rat; settings: 10 mg/kg per day for 3 months
dyslipidaemic mice = assay: Endothelial function and compliance of isolated renal and cerebral arteries (myograph) in dyslipidaemic mice; type: in vivo, mouse; settings: 10 mg/kg per day for 3 months
Procedure: (§1) The impact of treatment with ivabradine on endothelial function was studied in two pathological animal models, dyslipidaemic mice, and rats with heart failure, on 4 different vascular beds, renal and cerebral arteries in the mouse, coronary and mesenteric arteries in the rats. Study of the endothelial function comprises measuring the capacity of the vessel to dilate in response to various stimuli, such as acetylcholine, or measuring the increase in flow in the vessel.
(§2) Some animals were treated with ivabradine, 10 mg/kg per day for 3 months. Dyslipidaemic mice, rats with heart failure, healthy mice (Wild type) and healthy rats, untreated, acted as controls. At the end of the treatment period, the arteries were isolated and mounted in a myograph in order to measure their diameter after the application of acetylcholine or to measure the increase in flow. In order to explore more closely the mechanism associated with endothelial dysfunction, inhibitors of the principal pathways of vasodilation were tested: a free-radical chelating agent, a nitrogen monoxide production inhibitor, a prostacyclin pathway inhibitor.
The compliance (capacity of the vessel to dilate as the transmural pressure increases) of the cerebral arteries of the mice was also evaluated.

[2] = system: dyslipidaemic mice, and rats with heart failure; assay: Mechanism of endothelial dysfunction explored with inhibitors of the principal pathways of vasodilation; type: in vivo, mouse, rat; settings: mechanism of the beneficial effects; 10 mg/kg per day for 3 months
Procedure: as §2

rats with heart failure = assay: Endothelial function of isolated coronary and mesenteric arteries (myograph) in rats with heart failure; type: in vivo, rat; settings: 10 mg/kg per day for 3 months
Procedure: as §1, §2

## COc1cc2c(cc1OC)CC(=O)N(CCCN(C)C[C@H]1Cc3cc(OC)c(OC)cc31)CC2 [ivabradine, 3-{3-[{[(7S)-3,4-dimethoxybicyclo [4.2.0]octa-1,3,5-trien-7-yl]-methyl}-(methyl)-amino]-propyl}-7,8-dimethoxy-1,3,4,5-tetrahydro-2H-3-benzazepin-2-one]
[1]
  reduction in cardiac frequency: 10-20%
Dyslipidaemic mice; DL mouse, FIG. 1C, D
  endothelial dysfunction (capacity to dilate) in the cerebral artery: completely prevents entothelial dysfunction
  endothelial dysfunction (capacity to dilate) in the renal artery: completely prevents entothelial dysfunction
Dyslipidaemic mice; treated mice
  compliance of the isolated cerebral arteries: improved
[2]
  nitrogen monoxide pathway: preservation of the nitrogen monoxide pathway
  oxidative stress: decrease in oxidative stress
Rats with heart failure; HF rat, FIG. 1A
  endothelial dysfunction (capacity to dilate) in the coronary artery: completely prevents entothelial dysfunction
Rats with heart failure; treated HF rat compared with untreated HF rat, FIG. 1B
  capacity of the mesenteric artery to dilate: appreciably improved
